Where a SMILES comes first, the peptide text is derived from it. The star is where a group is joined. X1 = CN(C)c1ccc2c(-c3ccc(C(=O)*)cc3C(=O)[O-])c3ccc(=[N+](C)C)cc-3oc2c1
Legend:
Ca922 cells = experiment: Annexin V staining with flow cytometry; format: cell-based, human; conditions: Ca922, 12.5 μM TMR-GBP, FIG. 6B
Protocol: […] Diluted 10× Binding Buffer to 1× using distilled water. Washed cells once in PBS, then once in 1× Binding Buffer. Resuspended cells in 1× Binding Buffer at 1-5×10^6/mL. Next, added 5 μL of fluorochrome-conjugated Annexin V to 100 μL of the cell suspension. Sample was incubated 10-15 minutes at room temperature. Afterwards, washed cells in 1× Binding Buffer and resuspend in 200 μL of 1× Binding Buffer. Analyzed by flow cytometry within 4 hours, storing at 2-8° C. in the dark.

293T = experiment: WST-8 cell viability assay, 293T; format: cell-based; conditions: 293T (embryonic kidney), different concentrations, 48 hours, FIG. 3
Protocol: Human oral squamous cell carcinoma (OSCC) cell lines, Ca922, OSC20, OECM-1, OC3, CGHNC9, HSC3, plus A549, MDA-MB-231, MCF7, Huh7, HeLa-Kyoto, Detroit 562, H520, H2170, and 293T cells were used in this study. Ca922, CGHNC9, MDA-MB-231, MCF7, Huh7, HeLa-Kyoto, Detroit 562, and 293T cells were all cultured in high-glucose Dulbecco's Modified Eagle Medium (DMEM). OSC20 and HSC3 cells were cultured in Dulbecco's Modified of Eagle's Medium/Ham's F-12 50/50 Mix (1:1). OECM-1, A549, H520, and H2170 cells were grown in RPMI-1640 medium. All culture media were supplemented with 10% fetal bovine serum (FBS) and 1% penicillin-streptomycin. OC3 cells were cultured in 1:1 DMEM/KSFM (keratinocyte serum-free medium) with supplied supplement of Bovine pituitary extract (BPE) and epidermal growth factor (EGF) followed by instruction. All the cells in this study were maintained at 37° C. in humidified atmosphere containing 5% CO2.
WST-8 [2-(2-methoxy-4-nitrophenyl)-3-(4-nitrophenyl)-5-(2,4-disulfophenyl)-2H-tetrazolium, monosodium salt] cell viability assay
Cells were seeded into 96 well plate and incubated at 37° C. overnight. […] The amount of formazan produced is proportional to the number of live cells and is expressed as cellular viability. […] Cell viability was measured at the absorbance of 450/655 nm wavelength by ELISA reader.

phospho-γH2Ax = experiment: Immunofluorescence staining of phospho-γH2Ax (DNA damage); format: cell-based, human
Protocol: Representative images showing DAPI-labelled nucleus (shown in blue) co-stained with phospho-γH2Ax (green). Ca922 cells were treated with 25 μM TMR-GBP for 12 or 24 hours followed by immunofluorescence staining. Foci in the nucleus indicated damaged DNA. Scale bar indicates 10 μm.
At least 20 cells were counted in each category. Bars indicate standard deviations from three independent experiments.
Immunofluorescence Staining
Cells grown on coverslips were washed with 1×PBS and fixed by PTEMF buffer (20 mM PIPES pH 6.8, 0.2% Triton X-100, 10 mM EGTA, 1 mM MgCl2, and 4% formaldehyde) or 4% paraformaldehyde for 10 minutes at room temperature. Then, fixation buffer was replaced with 1×PBST and the cells were washed with 1×PBST for another 10 minutes at room temperature. Coverslips were washed with 1×PBST twice gently and incubated with primary antibodies at room temperature for 1 hour. Next, washed with PBST for three times (2, 2, 5 minutes). Afterwards, coverslips were cultured in Alex Fluor-conjugated secondary antibodies and DAPI at room temperature for 30 minutes, washed three times (2, 2, 5 minutes), rinsed with ddH2O and mounted with mounting medium. Antibodies concentration used in this analysis is 1:1000 dilution. Images were acquired with specific fluorescence wavelength by Leica DMI6000 inverted microscope equipped with HCX PL FL 100λ/NA1.40 objective and EMCCD camera. All images were analyzed by MetaMorph software.

OECM-1 = experiment: Time-lapse live cell imaging, OECM-1; format: cell-based, human; conditions: OECM-1, unbound TMR-GBP removed, imaged at 15 minutes interval for 16 hours, FIG. 4
Protocol: Time-Lapse Live Cell Imaging
In order to monitor cell morphology and the stability of TMR-GBP, cells were incubated in 35 mm dish or 4 well dish at 37° C. overnight. Replaced the culture medium with CO2-independent medium with supplement of 10% fetal bovine serum (FBS) and 1% penicillin-streptomycin, cells were treated with reagent (TMR, GBP, TMR-GBP) for the time according to the experiment and subjected to time-lapse live cell imaging. Cells were maintained on the microscope stage incubator at 37° C. Multiple-positional time-lapse imaging was performed using an automated Leica DMI6000 inverted microscope equipped with an HCX PL FL 20λ/NA0.4 objective and Andor Luca R EMCCD camera. Images of cells were taken at different interval time and analyzed by MetaMorph software.

SMILES: CN(C)c1ccc2c(-c3ccc(C(=O)N[C@@H](CC(N)=O)C(=O)N[C@@H](Cc4ccc(O)cc4)C(=O)N[C@@H](CCCNC(=N)N)C(=O)N[C@@H](Cc4c[nH]c5ccccc45)C(=O)N[C@@H](CCCNC(=N)N)C(=O)N[C@@H](CS)C(=O)N[C@@H](CCCCN)C(=O)N[C@@H](CC(N)=O)C(=O)N[C@@H](CCC(N)=O)C(=O)N[C@@H](CC(N)=O)C(=O)O)cc3C(=O)[O-])c3ccc(=[N+](C)C)cc-3oc2c1 [TMR-GBP] (X1-NYRWRCKNQN-OH; N-terminus and C-terminus assumed)
- apoptosis by Annexin-V-FITC labeling (Ca922 cells): positively labeled by Annexin-V-FITC
- cell viability (293T): not markedly affected
- phospho-γH2Ax foci in the nucleus (DNA damage) (phospho-γH2Ax; Ca922, 25 μM TMR-GBP, 12 or 24 hours, FIG. 10A): many foci were observed accumulating in the nucleus
- increase of nuclear γH2Ax intensity (phospho-γH2Ax; Ca922, 25 μM, over control cells or cells co-treated with TMR-GBP and NAC, FIG. 10B): 4 folds
- phospho-γH2Ax signal, co-treated with NAC (phospho-γH2Ax; Ca922, co-treated with TMR-GBP and NAC, FIG. 10A): hardly detected any phospho-γH2Ax signal
- cell death by time-lapse microscopy (OECM-1): most cells die in 8 hours

Source: US11129867B2, “Method of treating cancer cells” (priority 2017, dated 2021)
